Values of other authors as cited in US20060258652A1, “Beta-blockers having antioxidant and no-donor activity” (priority 2002, published 2006).

Key:
[1] = double-blind study, hypertensive patients
[2] = prophylactic use

CC(C)NCC(O)COc1ccc(CC(N)=O)cc1 (centres unmarked) [atenolol]
efficacy in anxiety compared with propranolol [1]: considerably better than propranolol

CC(C)NCC(O)COc1cccc2ccccc12 (centres unmarked) [Propranolol]
patients in whom the incidence of migraine attacks is reduced [2]: 60%
